How the values were obtained:
HCT-15 = experiment: NCI cytotoxicity screen, Colon Cancer panel; assay type: cell-based; conditions: Homo sapiens, single dose 10 µM, negative = lethal, read-out: Percent growth inhibition
Experimental: (§1) Cytotoxicity was performed at National Cancer Institute (NCI), Bethesda, USA as per their protocols.

COLO 205 = experiment: NCI cytotoxicity screen, Colon Cancer panel; assay type: cell-based; conditions: Homo sapiens, single dose 10 µM, negative = lethal, read-out: Percent growth inhibition
Experimental: as §1

HT29 = experiment: NCI cytotoxicity screen, Colon Cancer panel; assay type: cell-based; conditions: Homo sapiens, HT-29; HT29; single dose 10 µM; negative = lethal; read-out: Percent growth inhibition
Experimental: as §1

HCT-116 = experiment: NCI cytotoxicity screen, Colon Cancer panel; assay type: cell-based; conditions: Homo sapiens, single dose 10 µM, negative = lethal, read-out: Percent growth inhibition
Experimental: as §1

HCC-2998 = experiment: NCI cytotoxicity screen, Colon Cancer panel; assay type: cell-based, human; conditions: Homo sapiens; HCC-2998; single dose 10 µM; negative = lethal; read-out: Percent growth inhibition
Experimental: as §1

SR = experiment: NCI cytotoxicity screen, Leukemia panel; assay type: cell-based; conditions: Homo sapiens, single dose 10 µM, negative = lethal, read-out: Percent growth inhibition
Experimental: as §1

K-562 = experiment: NCI cytotoxicity screen, Leukemia panel; assay type: cell-based; conditions: Homo sapiens, K562; K-562; single dose 10 µM; negative = lethal; read-out: Percent growth inhibition
Experimental: as §1

CCRF-CEM = experiment: NCI cytotoxicity screen, Leukemia panel; assay type: cell-based; conditions: Homo sapiens, single dose 10 µM, negative = lethal, read-out: Percent growth inhibition
Experimental: as §1

RPMI-8226 = experiment: NCI cytotoxicity screen, Leukemia panel; assay type: cell-based; conditions: Homo sapiens; RPMI-8226; single dose 10 µM; negative = lethal; read-out: Percent growth inhibition
Experimental: as §1

HL-60(TB) = experiment: NCI cytotoxicity screen, Leukemia panel; assay type: cell-based; conditions: Homo sapiens, HL-60, HL-60(TB); single dose 10 µM; negative = lethal; read-out: Percent growth inhibition
Experimental: as §1

MOLT-4 = experiment: NCI cytotoxicity screen, Leukemia panel; assay type: cell-based; conditions: Homo sapiens, MOLT-4, MOLT-4; single dose 10 µM; negative = lethal; read-out: Percent growth inhibition
Experimental: as §1

SN12C = experiment: NCI cytotoxicity screen, Renal Cancer panel; assay type: cell-based; conditions: Homo sapiens, single dose 10 µM, negative = lethal, read-out: Percent growth inhibition
Experimental: as §1

A498 = experiment: NCI cytotoxicity screen, Renal Cancer panel; assay type: cell-based; conditions: Homo sapiens, single dose 10 µM, negative = lethal, read-out: Percent growth inhibition
Experimental: as §1

RXF 393 = experiment: NCI cytotoxicity screen, Renal Cancer panel; assay type: cell-based; conditions: Homo sapiens, single dose 10 µM, negative = lethal, read-out: Percent growth inhibition
Experimental: as §1

UO-31 = experiment: NCI cytotoxicity screen, Renal Cancer panel; assay type: cell-based; conditions: Homo sapiens, single dose 10 µM, negative = lethal, read-out: Percent growth inhibition
Experimental: as §1

ACHN = experiment: NCI cytotoxicity screen, Renal Cancer panel; assay type: cell-based; conditions: Homo sapiens, single dose 10 µM, negative = lethal, read-out: Percent growth inhibition
Experimental: as §1

NCI-H460 = experiment: NCI cytotoxicity screen, Non-Small Cell Lung Cancer panel; assay type: cell-based; conditions: Homo sapiens, single dose 10 µM, negative = lethal, read-out: Percent growth inhibition
Experimental: as §1

HOP-92 = experiment: as above; assay type: cell-based; conditions: Homo sapiens, single dose 10 µM, negative = lethal, read-out: Percent growth inhibition
Experimental: as §1

EXVX = experiment: as above; assay type: cell-based; conditions: Homo sapiens; EXVX; single dose 10 µM; negative = lethal; read-out: Percent growth inhibition
Experimental: as §1

HOP-62 = experiment: as above; assay type: cell-based; conditions: Homo sapiens, single dose 10 µM, negative = lethal, read-out: Percent growth inhibition
Experimental: as §1

A549/ATCC = experiment: as above; assay type: cell-based; conditions: Homo sapiens; A549/ATCC; single dose 10 µM; negative = lethal; read-out: Percent growth inhibition
Experimental: as §1

[1] = Experimental log P, shake-flask method; assay type: physicochemical; conditions: n-octanol/phosphate buffer pH 7.4, read-out: Exp. Log P
Experimental: Partition coefficients or experimental log P values of all synthesized compounds (9–23, 30 and 31) were calculated using the shake-flask method. Log P values were determined using n-octanol and phosphate buffer (pH = 7.4) at 10:1 ratio of volumes. Stock solutions (10^−3 M) of compounds were prepared in DMSO. Glass vials were used to make final solutions i.e. stock solution (250 µL) and phosphate buffer (125 µL). To record the absorbance, wavelength was selected based on λmax of the respective compound. Initial absorbance (Ai) for every compound was noted consuming the stock solution in the buffer phase. Now added n-octanol to every vial and shaken well using a mechanical shaker for 50 minutes. To get separation of both phases, glass vials were centrifuged for 35 min. at 2500 rpm. Then, the layer of octanol was separated from glass vial. The final absorbance (Af) of each compound was recorded by using the buffer layer. The values of P for compounds were determined by the following equation (Eq. 8):8 P=Ai−Af/Af×Vw/Vo

T-47D = experiment: NCI cytotoxicity screen, Breast Cancer panel; assay type: cell-based; conditions: Homo sapiens, T47D, T-47D; single dose 10 µM; negative = lethal; read-out: Percent growth inhibition
Experimental: as §1

MDA-MB-468 = experiment: NCI cytotoxicity screen, Breast Cancer panel; assay type: cell-based; conditions: Homo sapiens, single dose 10 µM, negative = lethal, read-out: Percent growth inhibition
Experimental: as §1

BT-549 = experiment: NCI cytotoxicity screen, Breast Cancer panel; assay type: cell-based; conditions: Homo sapiens, single dose 10 µM, negative = lethal, read-out: Percent growth inhibition
Experimental: as §1

HS 578 T = experiment: NCI cytotoxicity screen, Breast Cancer panel; assay type: cell-based; conditions: Homo sapiens; HS 578T; single dose 10 µM; negative = lethal; read-out: Percent growth inhibition
Experimental: as §1

MCF7 = experiment: NCI cytotoxicity screen, Breast Cancer panel; assay type: cell-based; conditions: Homo sapiens, single dose 10 µM, negative = lethal, read-out: Percent growth inhibition
Experimental: as §1

MDA-MB-231/ATCC = experiment: NCI cytotoxicity screen, Breast Cancer panel; assay type: cell-based; conditions: Homo sapiens, MDA-MB-231, read-out: Percent growth inhibition
Experimental: as §1

OVCAR-5 = experiment: NCI cytotoxicity screen, Ovarian Cancer panel; assay type: cell-based; conditions: Homo sapiens, single dose 10 µM, negative = lethal, read-out: Percent growth inhibition
Experimental: as §1

OVCAR-4 = experiment: NCI cytotoxicity screen, Ovarian Cancer panel; assay type: cell-based; conditions: Homo sapiens; OVCAR-4; single dose 10 µM; negative = lethal; read-out: Percent growth inhibition
Experimental: as §1

SK-OV-3 = experiment: NCI cytotoxicity screen, Ovarian Cancer panel; assay type: cell-based; conditions: Homo sapiens, single dose 10 µM, negative = lethal, read-out: Percent growth inhibition
Experimental: as §1

OVCAR-8 = experiment: NCI cytotoxicity screen, Ovarian Cancer panel; assay type: cell-based; conditions: Homo sapiens, single dose 10 µM, negative = lethal, read-out: Percent growth inhibition
Experimental: as §1

NCI/ADR-RES = experiment: NCI cytotoxicity screen, Ovarian Cancer panel; assay type: cell-based; conditions: Homo sapiens, single dose 10 µM, negative = lethal, read-out: Percent growth inhibition
Experimental: as §1

IGROV1 = experiment: NCI cytotoxicity screen, Ovarian Cancer panel; assay type: cell-based; conditions: Homo sapiens, IGROV-1, single dose 10 µM, negative = lethal, read-out: Percent growth inhibition
Experimental: as §1

NCI-H226 = experiment: NCI cytotoxicity screen, Non-Small Cell Lung Cancer panel; assay type: cell-based, human; conditions: Homo sapiens, single dose 10 µM, negative = lethal, read-out: Percent growth inhibition
Experimental: as §1

NCI-522 = experiment: as above; assay type: cell-based, human; conditions: Homo sapiens; NCI-522; single dose 10 µM; negative = lethal; read-out: Percent growth inhibition
Experimental: as §1

NCI-H23 = experiment: as above; assay type: cell-based, human; conditions: Homo sapiens, single dose 10 µM, negative = lethal, read-out: Percent growth inhibition
Experimental: as §1

NCI-H322M = experiment: as above; assay type: cell-based, human; conditions: Homo sapiens, single dose 10 µM, negative = lethal, read-out: Percent growth inhibition
Experimental: as §1

OVCAR-3 = experiment: NCI cytotoxicity screen, Ovarian Cancer panel; assay type: cell-based, human; conditions: Homo sapiens; OVCAR-3; single dose 10 µM; negative = lethal; read-out: Percent growth inhibition
Experimental: as §1

DU-145 = experiment: NCI cytotoxicity screen, Prostate Cancer panel; assay type: cell-based, human; conditions: Homo sapiens, single dose 10 µM, negative = lethal, read-out: Percent growth inhibition
Experimental: as §1

PC-3 = experiment: NCI cytotoxicity screen, Prostate Cancer panel; assay type: cell-based, human; conditions: Homo sapiens, single dose 10 µM, negative = lethal, read-out: Percent growth inhibition
Experimental: as §1

## c1ccc(-c2cn3ccnc3c(-c3ccc4c(c3)ncn4C3CCCCC3)n2)cc1 [Compound 9, 8-(1-cyclohexyl-1H-benzo[d]imidazol-5-yl)-6-phenylimidazo[1,2-a]pyrazine]
HCT-15
  inhibition at 10 µM: 19.1%
COLO 205
  inhibition at 10 µM: 0.28%
HT29
  inhibition at 10 µM: 9.21%
HCT-116
  inhibition at 10 µM: 3.81%
HCC-2998
  inhibition at 10 µM: < 1%
SR
  inhibition at 10 µM: 44.6%
K-562
  inhibition at 10 µM: 31.1%
CCRF-CEM
  inhibition at 10 µM: 11.7%
RPMI-8226
  inhibition at 10 µM: 18.3%
HL-60(TB)
  inhibition at 10 µM: 19.4%
MOLT-4
  inhibition at 10 µM: 39.7%
SN12C
  inhibition at 10 µM: 4.83%
A498
  inhibition at 10 µM: < 1%
RXF 393
  inhibition at 10 µM: 23.3%
UO-31
  inhibition at 10 µM: 20.9%
ACHN
  inhibition at 10 µM: < 1%
NCI-H460
  inhibition at 10 µM: < 1%
HOP-92
  inhibition at 10 µM: 10.9%
EXVX
  inhibition at 10 µM: 2.51%
HOP-62
  inhibition at 10 µM: 12.9%
A549/ATCC
  inhibition at 10 µM: 9%
[1]
  logP: 1.59
T-47D
  inhibition at 10 µM: 25.5%
MDA-MB-468
  inhibition at 10 µM: < 1%
BT-549
  inhibition at 10 µM: 0.43%
HS 578 T
  inhibition at 10 µM: < 1%
MCF7
  inhibition at 10 µM: 15.8%
MDA-MB-231/ATCC
  inhibition at 10 µM: 6.64%
OVCAR-5
  inhibition at 10 µM: < 1%
OVCAR-4
  inhibition at 10 µM: < 1%
SK-OV-3
  inhibition at 10 µM: < 1%
OVCAR-8
  inhibition at 10 µM: < 1%
NCI/ADR-RES
  inhibition at 10 µM: < 1%
IGROV1
  inhibition at 10 µM: < 1%
NCI-H226
  inhibition at 10 µM: < 1%
NCI-522
  inhibition at 10 µM: 16.1%
NCI-H23
  inhibition at 10 µM: < 1%
NCI-H322M
  inhibition at 10 µM: 2.91%
other
  melting point: 195 to 198 °C
OVCAR-3
  inhibition at 10 µM: < 1%
DU-145
  inhibition at 10 µM: 2.64%
PC-3
  inhibition at 10 µM: 13.5%

Reference: PMC7162861, “Synthesis, cytotoxicity, pharmacokinetic profile, binding with DNA and BSA of new imidazo[1,2-a]pyrazine-benzo[d]imidazol-5-yl hybrids” (Scientific Reports, 2020)
